These results are taken from patent US20240251792A1, “WEED CONTROL METHOD” (SYNGENTA CROP PROTECTION AG, priority 2021, published 2024).

Where two headings read alike, the source gives them in different places.

Type in all cases: in vivo
The test system of assay [1] is AMAPA. Kind of assay: Pre-emergence biological efficacy (Table 3). The settings on record: 312 h, 1000 g/ha, after 13 days, read-out: evaluation (100=total damage to plant; 0=no damage to plant). An outline of the steps: (§1)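 Visual damage score (0 = no damage, 100 = total damage) read 13 days after spraying. Pots were sown one day earlier and held at 24/19 °C, 16 h light; the 50 g/l acetone/AMA formulation was diluted in 0.2% Genapol X080 to the final dose.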

The test system of assay [2] is AMARE. Kind of assay: Pre-emergence biological efficacy (Table 3). Conditions: Amaranthus retroflexus, 312 h, 1000 g/ha, after 13 days, read-out: evaluation (100=total damage to plant; 0=no damage to plant). Summed up:
as §1

Assay [3] has as its system ECHCG. As to the kind of experiment: Pre-emergence biological efficacy (Table 3). Conditions: Echinochloa crus-galli, 312 h, 1000 g/ha, after 13 days, read-out: evaluation (100=total damage to plant; 0=no damage to plant). Summed up: as §1
Assay [4] relates to IPOHE. As to the kind of experiment: Pre-emergence biological efficacy (Table 3). The settings on record: Ipomoea hederacea, 312 h, 1000 g/ha, after 13 days, read-out: evaluation (100=total damage to plant; 0=no damage to plant). An outline of the steps: as §1
Assay [5] deals with SETFA. As to the kind of experiment: Pre-emergence biological efficacy (Table 3). Conditions: Setaria faberi, 312 h, 1000 g/ha, after 13 days, read-out: evaluation (100=total damage to plant; 0=no damage to plant). An outline of the steps:
as §1

Assay [6] concerns ZEAMX. As to the kind of experiment: Pre-emergence biological efficacy (Table 3). The settings on record: 312 h, 1000 g/ha, after 13 days, read-out: evaluation (100=total damage to plant; 0=no damage to plant). Summed up: as §1
Assay [7] concerns weeds and/or crops. As to the kind of experiment: Post-emergence biological efficacy (Table 4). The settings on record: 312 h, 1000 g/ha, evaluated after 13 days. Summed up:
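Scores are visual damage (0 = none, 100 = total), read 13 days after treatment at 24/18 °C with 15 h light. Plants had been sown in standard soil and grown 14 days before a spray of compound in F50/acetone, diluted with 0.2% Genapol X080.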

Setting [8] is: AMAPA, read-out: damage to plant AMAPA (100=total damage; 0=no damage).
The mark [9] stands for this setting: ZEAMX, read-out: damage to plant ZEAMX (100=total damage; 0=no damage).
Where [10] appears, read: Amaranthus retroflexus, AMARE, read-out: damage to plant AMARE (100=total damage; 0=no damage).
The mark [11] stands for this setting: Echinochloa crus-galli, ECHCG, read-out: damage to plant ECHCG (100=total damage; 0=no damage).
Setting [12] is: Ipomoea hederacea, IPOHE, read-out: damage to plant IPOHE (100=total damage; 0=no damage).
The mark [13] stands for this setting: Setaria faberi, SETFA, read-out: damage to plant SETFA (100=total damage; 0=no damage).

Take `Cc1cccc(C(F)(F)C(=O)O)c1C#N` [Compound 1-462, 2-(2-Cyano-3-methyl-phenyl)-2,2-difluoro-acetic acid]: the pest or weed control at 1000 g/ha in assay [1] worked out at 30%; in assay [2] it was 50%; in assay [3], 0%; in assay [4] it was 40%; in assay [5], 0%; in assay [7] (setting [8]), 80%. The pest or weed control at 1000 g/ha in assay [7] (setting [9]) worked out at 10%; in assay [7] (setting [10]), 80%; in assay [7] (setting [11]), 0%; in assay [7] (setting [12]), 70%; in assay [7] (setting [13]), 20%. Besides, the plant injury at 1000 g/ha in assay [6] came to 0%.

As to `COc1cccc(C(F)(F)C(=O)O)c1C` [Compound 1-242, 2,2-Difluoro-2-(3-methoxy-2-methyl-phenyl)acetic acid], the pest or weed control at 1000 g/ha was 70% in assay [1]; 70% in assay [2]; 0% in assay [3]; 60% in assay [4]; 10% in assay [5]; 80% in assay [7] (setting [8]). Besides, the pest or weed control at 1000 g/ha came to 10% in assay [7] (setting [9]); 80% in assay [7] (setting [10]); 10% in assay [7] (setting [11]); 70% in assay [7] (setting [12]); 10% in assay [7] (setting [13]). Also, the plant injury at 1000 g/ha in assay [6] is 10%.

For `COc1cccc(C(F)(F)C(=O)O)c1F` [Compound 1-190, 2,2-Difluoro-2-(2-fluoro-3-methoxy-phenyl)acetic acid], the pest or weed control at 1000 g/ha was 80% in assay [1]; 80% in assay [2]; 0% in assay [3]; 90% in assay [4]; 20% in assay [5]; 80% in assay [7] (setting [8]). Further, the pest or weed control at 1000 g/ha in assay [7] (setting [9]) was 10%; in assay [7] (setting [10]), 90%; in assay [7] (setting [11]) it was 40%; in assay [7] (setting [12]), 60%; in assay [7] (setting [13]) it was 20%. Moreover, in assay [6], the plant injury at 1000 g/ha was 0%.

On to `N#Cc1c(F)cccc1C(F)(F)C(=O)O` [Compound 1-261, 2-(2-Cyano-3-fluoro-phenyl)-2,2-difluoro-acetic acid], for which the pest or weed control at 1000 g/ha was determined as 50% in assay [1]; 40% in assay [2]; 10% in assay [3]; 40% in assay [4]; 10% in assay [5]; 70% in assay [7] (setting [8]). Moreover, the pest or weed control at 1000 g/ha is 20% in assay [7] (setting [9]); 70% in assay [7] (setting [10]); 0% in assay [7] (setting [11]); 40% in assay [7] (setting [12]); 30% in assay [7] (setting [13]). For the same compound, in assay [6], the plant injury at 1000 g/ha is 0%.
